In patent publication US6093732A, “4-hydroxyquinoline-3-carboxamides and hydrazides as antiviral agents” (Pharmacia & Upjohn Company, priority 1998, dated 2000):

Columns and labels:
Format in all cases: biochemical
HCMV polymerase = target: T1, HCMV polymerase (Human cytomegalovirus, UniProt P08546); assay: HCMV polymerase scintillation proximity assay (SPA), modified version; details: CMV polymerase; Table 1; modified assay with 4.5 mM DTT, compounds in 100% DMSO; read-out: Antiviral Selective Polymerase IC50 Values, CMV
T1 construct: made in house; host or cells: recombinant baculovirus-infected SF-9 cells
T1 sequence (P08546 whole entry): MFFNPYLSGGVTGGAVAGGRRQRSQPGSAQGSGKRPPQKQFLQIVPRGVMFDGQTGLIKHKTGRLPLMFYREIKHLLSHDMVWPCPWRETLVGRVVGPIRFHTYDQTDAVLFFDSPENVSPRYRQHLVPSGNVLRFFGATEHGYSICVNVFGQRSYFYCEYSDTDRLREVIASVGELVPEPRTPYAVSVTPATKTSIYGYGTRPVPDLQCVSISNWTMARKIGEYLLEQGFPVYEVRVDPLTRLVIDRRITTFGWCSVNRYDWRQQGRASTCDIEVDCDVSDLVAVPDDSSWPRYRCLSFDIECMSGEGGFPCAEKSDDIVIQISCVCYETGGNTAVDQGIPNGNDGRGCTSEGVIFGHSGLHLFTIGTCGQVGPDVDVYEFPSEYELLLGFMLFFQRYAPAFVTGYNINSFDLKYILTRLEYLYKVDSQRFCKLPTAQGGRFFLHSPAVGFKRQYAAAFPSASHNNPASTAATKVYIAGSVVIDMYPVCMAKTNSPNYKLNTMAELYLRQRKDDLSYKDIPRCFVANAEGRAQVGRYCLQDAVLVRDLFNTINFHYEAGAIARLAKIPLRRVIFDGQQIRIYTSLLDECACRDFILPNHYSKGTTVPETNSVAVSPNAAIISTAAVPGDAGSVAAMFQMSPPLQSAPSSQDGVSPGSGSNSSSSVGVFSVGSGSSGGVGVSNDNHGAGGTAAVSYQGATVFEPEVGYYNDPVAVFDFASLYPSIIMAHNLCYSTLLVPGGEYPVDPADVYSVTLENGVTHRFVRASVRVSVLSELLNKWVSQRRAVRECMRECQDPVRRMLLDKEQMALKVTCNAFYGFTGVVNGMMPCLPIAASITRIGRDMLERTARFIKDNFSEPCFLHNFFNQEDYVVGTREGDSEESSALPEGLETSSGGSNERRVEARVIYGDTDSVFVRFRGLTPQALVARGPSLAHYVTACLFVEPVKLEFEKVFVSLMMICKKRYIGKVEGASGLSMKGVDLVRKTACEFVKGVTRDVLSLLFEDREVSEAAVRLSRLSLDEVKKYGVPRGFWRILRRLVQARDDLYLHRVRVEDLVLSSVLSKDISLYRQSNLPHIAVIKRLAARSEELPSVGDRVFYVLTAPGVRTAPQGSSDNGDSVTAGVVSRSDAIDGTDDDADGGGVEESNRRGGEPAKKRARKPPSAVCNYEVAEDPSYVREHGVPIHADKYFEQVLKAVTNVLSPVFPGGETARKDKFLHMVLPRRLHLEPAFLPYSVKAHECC
How it was run: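 Recombinant polymerase (baculovirus/SF-9) in 5.4 mM HEPES pH 7.5, 11.7 mM KCl, 4.5 mM MgCl2, 0.36 mg/ml BSA, 90 nM 3H-dTTP, ±2 mM CHAPS; started with 6 nM biotinylated poly(dA)-oligo(dT), 25° C or 37° C, EDTA-stopped in linear range (30 min for HCMV). Streptavidin-SPA read; IC50 by linear regression. Modified version: 100% DMSO compound dilution, 4.5 mM DTT added.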

HSV polymerase = HSV polymerase (Human herpesvirus 1, UniProt P04293); assay: HSV polymerase assay (procedure similar to the HCMV polymerase SPA); details: Table 1, read-out: Antiviral Selective Polymerase IC50 Values, HSV
Sequence of HSV polymerase (P04293 whole entry): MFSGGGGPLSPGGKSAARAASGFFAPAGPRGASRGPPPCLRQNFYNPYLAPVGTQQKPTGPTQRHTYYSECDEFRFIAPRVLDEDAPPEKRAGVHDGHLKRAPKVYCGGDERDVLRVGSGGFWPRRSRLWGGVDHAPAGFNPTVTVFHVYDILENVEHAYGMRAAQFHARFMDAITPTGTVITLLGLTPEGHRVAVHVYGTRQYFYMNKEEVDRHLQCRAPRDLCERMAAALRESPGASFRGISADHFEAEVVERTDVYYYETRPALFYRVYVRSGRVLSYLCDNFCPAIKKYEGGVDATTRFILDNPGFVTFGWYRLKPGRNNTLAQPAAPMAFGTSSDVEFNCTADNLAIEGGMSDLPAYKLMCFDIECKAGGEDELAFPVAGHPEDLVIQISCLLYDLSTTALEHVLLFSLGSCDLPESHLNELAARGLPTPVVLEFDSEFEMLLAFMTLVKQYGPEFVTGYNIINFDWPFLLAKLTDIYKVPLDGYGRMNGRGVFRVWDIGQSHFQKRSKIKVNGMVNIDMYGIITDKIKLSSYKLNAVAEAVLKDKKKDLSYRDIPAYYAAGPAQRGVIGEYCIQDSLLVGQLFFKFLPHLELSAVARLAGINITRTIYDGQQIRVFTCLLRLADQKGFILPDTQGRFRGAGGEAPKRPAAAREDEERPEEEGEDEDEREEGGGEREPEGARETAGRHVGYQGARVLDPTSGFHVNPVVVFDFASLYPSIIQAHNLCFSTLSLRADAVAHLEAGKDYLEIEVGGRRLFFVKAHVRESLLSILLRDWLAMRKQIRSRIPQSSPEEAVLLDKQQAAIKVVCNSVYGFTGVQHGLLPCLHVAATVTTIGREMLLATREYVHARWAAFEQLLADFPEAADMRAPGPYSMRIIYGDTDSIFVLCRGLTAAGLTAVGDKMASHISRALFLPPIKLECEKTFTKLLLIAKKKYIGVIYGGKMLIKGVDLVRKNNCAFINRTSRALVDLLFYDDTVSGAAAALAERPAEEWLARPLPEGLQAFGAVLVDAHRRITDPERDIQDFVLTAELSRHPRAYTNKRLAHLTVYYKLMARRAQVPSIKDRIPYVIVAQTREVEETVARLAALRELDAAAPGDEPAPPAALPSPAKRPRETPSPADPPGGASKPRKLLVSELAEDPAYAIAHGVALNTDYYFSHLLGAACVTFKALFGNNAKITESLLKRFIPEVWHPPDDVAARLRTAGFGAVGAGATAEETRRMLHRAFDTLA
Experimental: (§1) The HCMV polymerase assay is performed using a scintillation proximity assay (SPA) as described in several references, such as N. D. Cook, et al., Pharmaceutical Manufacturing International, pages 49-53 (1992); K. Takeuchi, Laboratory Practice, September issue (1992); U.S. Pat. No. 4,568,649 (1986); which are incorporated by reference herein. Reactions are performed in 96-well plates. The assay is conducted in 100 μl volume with 5.4 mM HEPES (pH 7.5), 11.7 mM KCl, 4.5 mM MgCl2, 0.36 mg/ml BSA, and 90 nM ^3 H-dTTP. Assays are run with and without CHAPS, (3-[(3-Cholamidopropyl)-dimethylammonio]-1-propane-sulfonate) at a final concentration of 2 mM. HCMV polymerase is diluted in enzyme dilution buffer containing 50% glycerol, 250 mM NaCl, 10 mM HEPES (pH 7.5), 100 μg/ml BSA, and 0.01% sodium azide. The HCMV polymerase, which is expressed in recombinant baculovirus-infected SF-9 cells and purified according to literature procedures, is added at 10% (or 10 μl) of the final reaction volume, i.e., 100 μl. Compounds are diluted in 50% DMSO and 10 μl are added to each well. Control wells contain an equivalent concentration of DMSO. Unless noted otherwise, reactions are initiated via the addition of 6 nM biotinylated poly(dA)-oligo(dT) template/primer to reaction mixtures containing the enzyme, substrate, and compounds of interest. Plates are incubated in a 25° C. or 37° C. H2 O bath and terminated via the addition of 40 μl/reaction of 0.5 M EDTA (pH 8) per well. Reactions are terminated within the time-frame during which substrate incorporation is linear and varied depending upon the enzyme and conditions used, i.e., 30 min. for HCMV polymerase. Ten μl of streptavidin-SPA beads (20 mg/ml in PBS/10% glycerol) are added following termination of the reaction. Plates are incubated 10 min. at 37° C., then equilibrated to room temperature, and counted on a Packard Topcount. Linear regressions are performed and IC50 's are calculated using computer software.
(§2) A modified version of the above HCMV polymerase assay is performed as described above, but with the following changes: Compounds are diluted in 100% DMSO until final dilution into assay buffer. In the previous assay, compounds are diluted in 50% DMSO. 4.5 mM dithiotherotol (DTT) is added to the polymerase buffer. […] Other viral polymerase assays are performed using procedures similar to those described above.

VZV polymerase = VZV polymerase (Varicella-zoster virus, UniProt P09252); assay: VZV polymerase assay (procedure similar to the HCMV polymerase SPA); details: Table 1, read-out: Antiviral Selective Polymerase IC50 Values, VZV
Sequence of VZV polymerase (P09252 whole entry): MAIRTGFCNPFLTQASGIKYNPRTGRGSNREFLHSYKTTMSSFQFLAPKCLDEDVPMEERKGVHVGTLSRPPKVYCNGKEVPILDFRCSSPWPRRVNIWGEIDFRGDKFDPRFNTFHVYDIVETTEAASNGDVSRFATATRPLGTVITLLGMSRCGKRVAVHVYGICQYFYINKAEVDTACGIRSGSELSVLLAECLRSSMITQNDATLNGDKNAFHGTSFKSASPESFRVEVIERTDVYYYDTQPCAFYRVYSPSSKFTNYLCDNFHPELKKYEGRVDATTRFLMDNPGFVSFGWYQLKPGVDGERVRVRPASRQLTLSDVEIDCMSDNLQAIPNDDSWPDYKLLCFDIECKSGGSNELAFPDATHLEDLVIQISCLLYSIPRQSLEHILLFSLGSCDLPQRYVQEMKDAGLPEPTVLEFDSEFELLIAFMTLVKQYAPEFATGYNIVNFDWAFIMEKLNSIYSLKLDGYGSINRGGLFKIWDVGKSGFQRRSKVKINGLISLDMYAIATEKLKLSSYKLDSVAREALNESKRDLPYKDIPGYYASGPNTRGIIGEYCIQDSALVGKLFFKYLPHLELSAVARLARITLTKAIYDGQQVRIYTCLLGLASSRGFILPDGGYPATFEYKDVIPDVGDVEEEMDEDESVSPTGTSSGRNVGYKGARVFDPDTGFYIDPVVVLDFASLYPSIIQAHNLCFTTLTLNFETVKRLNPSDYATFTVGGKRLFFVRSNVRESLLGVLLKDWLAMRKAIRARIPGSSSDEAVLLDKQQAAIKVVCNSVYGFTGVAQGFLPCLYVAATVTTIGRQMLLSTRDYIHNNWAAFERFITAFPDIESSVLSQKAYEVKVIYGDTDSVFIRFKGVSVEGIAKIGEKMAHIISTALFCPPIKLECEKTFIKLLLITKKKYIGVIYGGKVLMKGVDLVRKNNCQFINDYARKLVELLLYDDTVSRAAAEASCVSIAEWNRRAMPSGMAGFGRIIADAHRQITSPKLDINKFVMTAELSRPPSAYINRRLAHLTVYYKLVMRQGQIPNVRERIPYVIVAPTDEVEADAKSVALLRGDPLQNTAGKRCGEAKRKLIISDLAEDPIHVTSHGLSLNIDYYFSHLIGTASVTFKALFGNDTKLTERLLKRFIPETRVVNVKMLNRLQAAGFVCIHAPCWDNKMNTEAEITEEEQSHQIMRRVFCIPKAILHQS
Experimental: as §1, §2

O=C(NCc1ccc(Cl)cc1)c1cnc2cc(C(F)(F)F)ccc2c1O [Example 1, N-[(4-Chlorophenyl)methyl]-4-hydroxy-7-(trifluoromethyl)-3-quinoline-carboxamide]
IC50 (HCMV polymerase): 38.2 µM | IC50 (HSV polymerase): 35.5 µM | IC50 (VZV polymerase): 13.3 µM

Nc1ccc2c(O)c(C(=O)NCc3ccc(Cl)cc3)cnc2c1 [Example 2, 7-Amino-N-[(4-chlorophenyl)methyl]-4-hydroxy-3-quinolinecarboxamide]
IC50 (HCMV polymerase): 5.2 µM | IC50 (HSV polymerase): 3.5 µM | IC50 (VZV polymerase): 0.6 µM

O=C(NCc1ccc(Cl)cc1)c1cnc2ccccc2c1O [Example 6, N-[(4-Chlorophenyl)methyl]-4-hydroxy-3-quinolinecarboxamide]
IC50 (HCMV polymerase): 7.6 µM | IC50 (HSV polymerase): 2.3 µM | IC50 (VZV polymerase): 0.7 µM

COc1ccc2c(O)c(C(=O)NCc3ccc(Cl)cc3)cnc2c1 [Example 7, N-[(4-Chlorophenyl)methyl]-4-hydroxy-7-methoxy-3-quinoline-carboxamide]
IC50 (HCMV polymerase): 4.9 µM | IC50 (HSV polymerase): 5.5 µM | IC50 (VZV polymerase): 0.7 µM

O=C(NCc1ccc(Cl)cc1)c1cnc2cc(F)ccc2c1O [Example 9, N-[(4-Chlorophenyl)methyl]-7-fluoro-4-hydroxy-3-quinolinecarboxamide]
IC50 (HCMV polymerase): < 2.3 µM | IC50 (HSV polymerase): < 2.3 µM | IC50 (VZV polymerase): 2.5 µM

O=C(NCc1ccc(Cl)cc1)c1cnc2ccc(F)cc2c1O [Example 10, N-[(4-Chlorophenyl)methyl]-6-fluoro-4-hydroxy-3-quinoline-carboxamide]
IC50 (HCMV polymerase): 9.7 µM | IC50 (HSV polymerase): 14 µM | IC50 (VZV polymerase): 3.9 µM

O=C(NCc1ccc(Cl)cc1)c1cnc2c(F)cccc2c1O [Example 12, N-[(4-Chlorophenyl)methyl]-8-fluoro-4-hydroxy-3-quinoline-carboxamide]
IC50 (HCMV polymerase): 1.4 µM | IC50 (HSV polymerase): 3.4 µM | IC50 (VZV polymerase): < 3.1 µM

O=C(NCc1ccc(Cl)cc1)c1cnc2ccc([N+](=O)[O-])cc2c1O [Example 13, N-[(4-Chlorophenyl)methyl]-4-hydroxy-6-nitro-3-quinoline-carboxamide]
IC50 (HCMV polymerase): < 2.3 µM | IC50 (HSV polymerase): 3 µM | IC50 (VZV polymerase): < 2.3 µM

O=C(NCc1ccc(Cl)cc1)c1cnc2c(F)c(F)c(F)c(F)c2c1O [Example 14, N-[(4-Chlorophenyl)methyl]-5,6,7,8-tetrafluoro-4-hydroxy-3-quinolinecarboxamide]
IC50 (HCMV polymerase): 11.5 µM | IC50 (HSV polymerase): 7.9 µM | IC50 (VZV polymerase): 3.6 µM

O=C(NCc1ccc(Cl)cc1)c1cnc2c(F)c(F)c(F)cc2c1O [Example 15, N-[(4-Chlorophenyl)methyl]-6,7,8-trifluoro-4-hydroxy-3-quinolinecarboxamide]
IC50 (HCMV polymerase): 20.8 µM | IC50 (HSV polymerase): 22 µM | IC50 (VZV polymerase): 13.1 µM

O=C(NNc1ccc(Cl)cc1)c1cnc2c(F)c(F)c(F)cc2c1O [Example 16, 6,7,8-Trifluoro-4-hydroxy-3-quinolinecarboxylic acid 2-(4-chlorophenyl)hydrazide]
IC50 (HCMV polymerase): 2.7 µM | IC50 (HSV polymerase): 2.8 µM | IC50 (VZV polymerase): 1.3 µM

CC(=O)Nc1ccc2c(O)c(C(=O)NCc3ccc(Cl)cc3)cnc2c1 [Example 25, 7-(Acetylamino)-N-[(4-chlorophenyl)methyl]-4-hydroxy-3-quinolinecarboxamide]
IC50 (HCMV polymerase): 13.5 µM | IC50 (HSV polymerase): 18.5 µM | IC50 (VZV polymerase): 8.4 µM

CS(=O)(=O)Nc1ccc2c(O)c(C(=O)NCc3ccc(Cl)cc3)cnc2c1 [Example 26, N-[(4-Chlorophenyl)methyl]-4-hydroxy-7-[(methylsulfonyl)-amino]-3-quinolinecarboxamide]
IC50 (HCMV polymerase): 17 µM | IC50 (HSV polymerase): 25 µM | IC50 (VZV polymerase): 14 µM

Nc1ccc2ncc(C(=O)NCc3ccc(Cl)cc3)c(O)c2c1 [Example 28, 6-Amino-N-[(4-chlorophenyl)methyl]-4-hydroxy-3-quinoline-carboxamide]
IC50 (HCMV polymerase): 18 µM | IC50 (HSV polymerase): 19.7 µM | IC50 (VZV polymerase): 8.3 µM

CS(=O)(=O)Nc1ccc2ncc(C(=O)NCc3ccc(Cl)cc3)c(O)c2c1 [Example 29, N-[(4-Chlorophenyl)methyl]-4-hydroxy-6-[(methylsulfonyl)-amino]-3-quinolinecarboxamide]
IC50 (HCMV polymerase): 34.1 µM | IC50 (HSV polymerase): 70.6 µM | IC50 (VZV polymerase): 25.2 µM

CN(C)c1ccc2ncc(C(=O)NCc3ccc(Cl)cc3)c(O)c2c1 [Example 30, N-[(4-Chlorophenyl)methyl]-6-(dimethylamino)-4-hydroxy-3-quinolinecarboxamide]
IC50 (HCMV polymerase): 10.6 µM | IC50 (HSV polymerase): 14.3 µM | IC50 (VZV polymerase): 7.5 µM

CC(=O)Nc1ccc2ncc(C(=O)NCc3ccc(Cl)cc3)c(O)c2c1 [Example 31, 6-(Acetylamino)-N-[(4-chlorophenyl)methyl]-4-hydroxy-3-quinolinecarboxamide]
IC50 (HCMV polymerase): 26.2 µM | IC50 (HSV polymerase): 81.5 µM | IC50 (VZV polymerase): 26 µM

O=C(NCc1ccc(Cl)cc1)c1cnc2cc(-n3cccc3)ccc2c1O [Example 32, N-[(4-Chlorophenyl)methyl]-4-hydroxy-7-(1-pyrrolyl)-3-quinolinecarboxamide]
IC50 (HCMV polymerase): 22 µM | IC50 (HSV polymerase): > 100 µM | IC50 (VZV polymerase): 53.8 µM

O=C(NCc1ccc(Cl)cc1)c1cnc2c(F)cc(C#CCO)cc2c1O [Example 53, N-[(4-Chlorophenyl)methyl]-8-fluoro-4-hydroxy-6-(3-hydroxy-1-propynyl)-3-quinolinecarboxamide]
IC50 (HCMV polymerase): < 0.78 µM | IC50 (HSV polymerase): 0.64 µM | IC50 (VZV polymerase): 0.39 µM

O=C(NCc1ccc(Cl)cc1)c1cnc2c(F)cc(-c3cccs3)cc2c1O [Example 75, N-[(4-Chlorophenyl)methyl]-8-fluoro-4-hydroxy-6-(2-thiophenyl)-3-quinolinecarboxamide]
IC50 (HCMV polymerase): 0.17 µM | IC50 (HSV polymerase): 0.43 µM | IC50 (VZV polymerase): 0.16 µM

O=C(NCc1ccc(Cl)cc1)c1cnc2c(F)cc(CCCCO)cc2c1O [Example 99, N-(4-Chlorobenzyl)-8-fluoro-4-hydroxy-6-(4-hydroxybutyl)-3-quinolinecarboxamide]
IC50 (HCMV polymerase): 0.14 µM | IC50 (HSV polymerase): 0.2 µM | IC50 (VZV polymerase): 0.09 µM

CC(C)(O)CCc1cc(F)c2ncc(C(=O)NCc3ccc(Cl)cc3)c(O)c2c1 [Example 106, N-(4-Chlorobenzyl)-8-fluoro-4-hydroxy-6-(3-hydroxy-3-methylbutyl)-3-quinolinecarboxamide]
IC50 (HCMV polymerase): 10.3 µM | IC50 (HSV polymerase): 16.4 µM | IC50 (VZV polymerase): 9.6 µM

CC(C)(C)O[PH](=O)OCCCc1cc(F)c2ncc(C(=O)NCc3ccc(Cl)cc3)c(O)c2c1 (stereo not shown) [Example 271, tert-Butyl 3-(3-{[(4-chlorobenzyl)amino]carbonyl}-8-fluoro-4-hydroxy-6-quinolinyl)propyl phosphonate]
IC50 (HCMV polymerase): 20.4 µM

O=C(NCc1ccc(Cl)cc1)c1cnc2ccc(CCCO[PH](=O)O)cc2c1O [Example 272, 3-(3-{[(4-Chlorobenzyl)amino]carbonyl}-4-hydroxy-6-quinolinyl)propyl hydrogen phosphonate]
IC50 (HCMV polymerase): 8.6 µM

CN(CCS(=O)(=O)O)C(=O)CCCCCCC(=O)OCC#Cc1cc(F)c2ncc(C(=O)NCc3ccc(Cl)cc3)c(O)c2c1 [Example 275]
IC50 (HCMV polymerase): 28.4 µM

O=C(NCc1ccc(Cl)cc1)c1cnc2cc(S(=O)(=O)NCc3cccc4ccccc34)ccc2c1O [Example 277, N-(4-Chlorobenzyl)-4-hydroxy-7-{[(1-naphthylmethyl)amino]-sulfonyl}-3-quinolinecarboxamide]
IC50 (HCMV polymerase): 0.77 µM

CSc1ccc2c(O)c(C(=O)NCc3ccc(Cl)cc3)cnc2c1 [Example 278, N-(4-Chlorobenzyl)-4-hydroxy-7-(methylsulfanyl)-3-quinolinecarboxamide]
IC50 (HCMV polymerase): 2.1 µM

O=C(NCc1ccc(Cl)cc1)c1cnc2cc3c(cc2c1O)OCO3 [Example 279, N-(4-Chlorobenzyl)-8-hydroxy[1,3]dioxolo [4,5-g]quinoline-7-carboxamide]
IC50 (HCMV polymerase): 4.9 µM

O=C(c1ccccc1)c1ccc2ncc(C(=O)NCc3ccc(Cl)cc3)c(O)c2c1 [Example 280, 6-Benzoyl-N-(4-chlorobenzyl)-4-hydroxy-3-quinolinecarboxamide]
IC50 (HCMV polymerase): 57.8 µM
